# Columns and labels:
# CCRF-CEM = format: cell-based; details: one dose 10^-5 M, 48 h
# HL-60(TB) = format: cell-based; details: one dose 10^-5 M, 48 h
# K-562 = format: cell-based; details: one dose 10^-5 M, 48 h
# MOLT-4 = format: cell-based; details: one dose 10^-5 M, 48 h
# RPMI-8226 = format: cell-based; details: one dose 10^-5 M, 48 h
# SR = format: cell-based; details: one dose 10^-5 M, 48 h
# A549/ATCC = format: cell-based; details: one dose 10^-5 M, 48 h
# EKVX = format: cell-based; details: one dose 10^-5 M, 48 h
# HOP-62 = format: cell-based; details: one dose 10^-5 M, 48 h
# HOP-92 = format: cell-based; details: one dose 10^-5 M, 48 h
# NCI-H226 = format: cell-based; details: one dose 10^-5 M, 48 h
# NCI-H23 = format: cell-based; details: one dose 10^-5 M, 48 h
# NCI-H460 = format: cell-based; details: one dose 10^-5 M, 48 h
# NCI-H522 = format: cell-based; details: one dose 10^-5 M, 48 h
# COLO 205 = format: cell-based; details: one dose 10^-5 M, 48 h
# HCC-2998 = format: cell-based; details: one dose 10^-5 M, 48 h
# HCT-116 = format: cell-based; details: one dose 10^-5 M, 48 h
# HCT-15 = format: cell-based; details: one dose 10^-5 M, 48 h
# HT29 = format: cell-based; details: one dose 10^-5 M, 48 h
# KM12 = format: cell-based; details: one dose 10^-5 M, 48 h
# SW-620 = format: cell-based; details: one dose 10^-5 M, 48 h
# SF-268 = format: cell-based; details: one dose 10^-5 M, 48 h
# SF-295 = format: cell-based; details: one dose 10^-5 M, 48 h
# SF-539 = format: cell-based; details: one dose 10^-5 M, 48 h
# SNB-19 = format: cell-based; details: one dose 10^-5 M, 48 h
# U251 = format: cell-based; details: one dose 10^-5 M, 48 h
# LOX IMVI = format: cell-based; details: one dose 10^-5 M, 48 h
# MALME-3M = format: cell-based; details: one dose 10^-5 M, 48 h
# M14 = format: cell-based; details: one dose 10^-5 M, 48 h
# MDA-MB-435 = format: cell-based; details: one dose 10^-5 M, 48 h
# SK-MEL-2 = format: cell-based; details: one dose 10^-5 M, 48 h
# SK-MEL-28 = format: cell-based; details: one dose 10^-5 M, 48 h
# SK-MEL-5 = format: cell-based; details: one dose 10^-5 M, 48 h
# UACC-257 = format: cell-based; details: one dose 10^-5 M, 48 h
# UACC-62 = format: cell-based; details: one dose 10^-5 M, 48 h
# IGROV1 = format: cell-based; details: one dose 10^-5 M, 48 h
# OVCAR-3 = format: cell-based; details: one dose 10^-5 M, 48 h
# OVCAR-4 = format: cell-based; details: one dose 10^-5 M, 48 h
# OVCAR-5 = format: cell-based; details: one dose 10^-5 M, 48 h
# OVCAR-8 = format: cell-based; details: one dose 10^-5 M, 48 h
# NCI/ADR-RES = format: cell-based; details: one dose 10^-5 M, 48 h
# SK-OV-3 = format: cell-based; details: one dose 10^-5 M, 48 h
# 786-0 = format: cell-based; details: one dose 10^-5 M, 48 h
# A498 = format: cell-based; details: one dose 10^-5 M, 48 h
# ACHN = format: cell-based; details: one dose 10^-5 M, 48 h
# CAKI-1 = format: cell-based; details: one dose 10^-5 M, 48 h
# RXF 393 = format: cell-based; details: one dose 10^-5 M, 48 h
# SN12C = format: cell-based, human; details: one dose 10^-5 M, 48 h
# TK-10 = format: cell-based; details: one dose 10^-5 M, 48 h
# UO-31 = format: cell-based; details: one dose 10^-5 M, 48 h
# PC-3 = format: cell-based; details: one dose 10^-5 M, 48 h
# DU-145 = format: cell-based; details: one dose 10^-5 M, 48 h
# MCF7 = format: cell-based; details: one dose 10^-5 M, 48 h
# MDA-MB-231/ATCC = format: cell-based; details: one dose 10^-5 M, 48 h
# HS 578T = format: cell-based; details: one dose 10^-5 M, 48 h; HS 578T
# BT-549 = format: cell-based; details: one dose 10^-5 M, 48 h
# T-47D = format: cell-based; details: one dose 10^-5 M, 48 h
# MDA-MB-468 = format: cell-based; details: one dose 10^-5 M, 48 h
# [1] = system: full NCI 60 cell lines panel
# Procedure: 60 different human tumour cell lines-representing leukaemia, melanoma, and malignancies of the lung, colon, brain, ovary, breast, prostate, and kidney are used in the operation of this screen.
# Compounds were dissolved in DMSO: glycerol (91) and were kept in a freezer at −70° C. The synthesised compounds were introduced to the culture at a single concentration of 1 0 ^−5 M and left to incubate for 48 h. A protein-binding dye called sulforhodamine B was used to measure end points (SRB).
# A mean graph showing the % growth of treated cells is used to represent the one-dose data. The value provided for the One-dose assay represents growth in comparison to the no-drug control and to the number of cells at time zero. This enables the identification of lethality (values between 0 and 100) as well as growth inhibition (values less than 0). A value of 100, for instance, indicates no growth inhibition. A value of 40 would indicate 60% growth inhibition. A value of 0 indicates no net growth over the course of the experiment. A value of −40 would indicate 40% lethality.
# Furthermore, the average sensitivity of all cell lines to the compound is termed as the full panel mean graph midpoints (MG-MID). The complete panel mean graph midpoints refers to the average sensitivity of all cell lines to the chemical (MG-MID). A measure of a compound’s selectivity for a given cell line is the ratio created by dividing the full panel mean graph midpoints (MG-MID) concentration by the individual subpanel MG-MID concentrations (obtained as the average sensitivity of all the cell lines in a given subpanel to the test compound).
substance,measurement,setting,value
"4-Amino-6–(2,4-dichlorophenyl)-2-mercaptopyrimidine-5-carboximidohydrazide [Compound 2c]",% growth,CCRF-CEM,75.32%
same,% growth,HL-60(TB),57.91%
same,% growth,K-562,91.24%
same,% growth,MOLT-4,94.43%
same,% growth,RPMI-8226,87.93%
same,% growth,SR,69.30%
same,% growth,A549/ATCC,89.50%
same,% growth,EKVX,83.88%
same,% growth,HOP-62,95.11%
same,% growth,HOP-92,71.67%
same,% growth,NCI-H226,90.50%
same,% growth,NCI-H23,95.68%
same,% growth,NCI-H460,89.85%
same,% growth,NCI-H522,68.80%
same,% growth,COLO 205,100.56%
same,% growth,HCC-2998,108.77%
same,% growth,HCT-116,85.00%
same,% growth,HCT-15,92.01%
same,% growth,HT29,89.84%
same,% growth,KM12,100.35%
same,% growth,SW-620,87.86%
same,% growth,SF-268,104.49%
same,% growth,SF-295,93.63%
same,% growth,SF-539,85.28%
same,% growth,SNB-19,86.22%
same,% growth,U251,103.26%
same,% growth,LOX IMVI,86.57%
same,% growth,MALME-3M,94.17%
same,% growth,M14,95.64%
same,% growth,MDA-MB-435,96.41%
same,% growth,SK-MEL-2,95.39%
same,% growth,SK-MEL-28,109.76%
same,% growth,SK-MEL-5,97.76%
same,% growth,UACC-257,102.94%
same,% growth,UACC-62,84.96%
same,% growth,IGROV1,104.68%
same,% growth,OVCAR-3,104.96%
same,% growth,OVCAR-4,82.22%
same,% growth,OVCAR-5,98.09%
same,% growth,OVCAR-8,94.00%
same,% growth,NCI/ADR-RES,103.23%
same,% growth,SK-OV-3,94.00%
same,% growth,786-0,90.40%
same,% growth,A498,105.32%
same,% growth,ACHN,76.09%
same,% growth,CAKI-1,83.79%
same,% growth,RXF 393,94.62%
same,% growth,SN12C,91.26%
same,% growth,TK-10,111.85%
same,% growth,UO-31,71.44%
same,% growth,PC-3,77.58%
same,% growth,DU-145,107.65%
same,% growth,MCF7,79.62%
same,% growth,MDA-MB-231/ATCC,77.09%
same,% growth,HS 578T,99.16%
same,% growth,BT-549,81.84%
same,% growth,T-47D,73.88%
same,% growth,MDA-MB-468,90.16%
same,activity on all 60 cancer cell lines tested (in words),[1]; one dose,weak activity
same,Mean % growth,"[1]; one dose 10^-5 M, 48 h, mean over all cell lines",90.71%
